According to US9249125B2, “Pyrazole derivatives as p38 MAP inhibitors” (RESPIVERT LIMITED, priority 2012, dated 2016):

Tests used:
Syk = Syk (Homo sapiens (Human), UniProt P43405); test: Syk enzyme inhibition (FRET, Z-LYTE); format: biochemical
How it was run: (§1)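 Z-LYTE FRET kinase assay: enzyme (3000 or 2000 ng/mL stock, respectively) preincubated 2 h at RT with compound (4–0.004 μg/mL stocks), then FRET peptide plus ATP (800 μM stock for c-Src, 60 μM for Syk) added for 1 h. Protease development 1 h; phosphorylation from coumarin/fluorescein emission ratio.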

[1] = test system: Poly I:C-induced ICAM-1 expression in BEAS2B cells; test: Poly I:C-induced ICAM-1 expression in BEAS2B cells; format: cell-based; settings: Homo sapiens, BEAS-2B, read-out: Poly IC induced ICAM1 in BEAS2B IC50
How it was run: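 Cell-based ELISA read at 450 nm minus 655 nm, divided by crystal violet OD595 to normalize for cell number, gave ICAM-1 levels. Readout was taken 18 hr after poly I:C (1 μg/mL, Oligofectamine) transfection of human bronchial BEAS2B cells pretreated 2 hr with test compound.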

p38 MAPKα = p38 MAPKα (Homo sapiens (Human), UniProt Q16539); test: p38 MAPKα enzyme inhibition (FRET, Z-LYTE); format: biochemical
d-U937 cells = test: Cell viability: MTT assay; format: cell-based, human; settings: 1 μg/mL
How it was run: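 MTT read-out (1 h, absorbance 550 nm) on d-U937 cells after pre-incubation with 1 or 10 μg/mL compound under two regimes: 4 h, 5% FCS, or 24 h, 10% FCS RPMI1640. Values are percent loss of viability relative to vehicle (0.5% DMSO), so increases are reported as negative.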

GSK3α = GSK3α (Homo sapiens (Human), UniProt P49840); test: GSK 3α enzyme inhibition (FRET, Z-LYTE); format: biochemical
How it was run: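 Phosphorylation was read as the donor (coumarin) to acceptor (fluorescein) ratio after a 1 hr protease step destroying non-phosphorylated peptide. Before this, compound (4–0.004 μg/mL stocks) sat 2 hr at RT with GSK3α (500 ng/mL stock), followed by 1 hr kinase reaction with 8 μM peptide and 40 μM ATP stocks.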

cSrc = cSrc (Homo sapiens (Human), UniProt P12931); test: c-Src enzyme inhibition (FRET, Z-LYTE); format: biochemical
How it was run: as §1

[2] = test system: LPS-induced IL-8 release in d-U937 cells; test: LPS-induced IL-8 release in d-U937 cells; format: cell-based; settings: Homo sapiens, dU937, read-out: LPS Induced Release of Cytokine in d-937 Cells IL-8 IC50
How it was run: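 Read-out: TNFα and IL-8 released into supernatant, sandwich ELISA, expressed as inhibition versus vehicle at each dose and fitted to give REC50. Cells were PMA-differentiated U937 (100 ng/mL, 48–72 hr), compound-exposed 2 hr before a 4 hr LPS stimulus (0.1 μg/mL).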

[3] = test system: LPS-induced TNFα release in d-U937 cells; test: LPS-induced TNFα release in d-U937 cells; format: cell-based; settings: Homo sapiens, dU937, relative to 10 μg/mL BIRB796, read-out: LPS Induced Release of Cytokine in d-937 Cells TNFα REC50
How it was run: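 First, U937 monocytes undergo PMA treatment (100 ng/mL) for 48 to 72 hr to become macrophage-type. Next, compound at final concentrations is added for 2 hr, followed by LPS at 0.1 μg/mL for 4 hr. Finally, cytokines in the supernatant are quantified by ELISA against vehicle-treated cells.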

Chain of p38 MAPKα (Q16539 whole entry): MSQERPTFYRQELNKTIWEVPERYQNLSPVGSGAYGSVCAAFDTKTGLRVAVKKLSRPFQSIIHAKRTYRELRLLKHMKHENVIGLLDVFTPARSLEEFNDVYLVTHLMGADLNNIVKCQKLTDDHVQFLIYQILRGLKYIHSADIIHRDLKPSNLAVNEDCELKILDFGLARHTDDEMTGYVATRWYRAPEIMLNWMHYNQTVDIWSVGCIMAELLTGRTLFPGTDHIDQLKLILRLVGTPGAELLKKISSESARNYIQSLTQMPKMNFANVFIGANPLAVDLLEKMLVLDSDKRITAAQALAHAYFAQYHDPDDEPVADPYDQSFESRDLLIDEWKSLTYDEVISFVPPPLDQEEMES
Chain of cSrc (P12931 whole entry, looked up): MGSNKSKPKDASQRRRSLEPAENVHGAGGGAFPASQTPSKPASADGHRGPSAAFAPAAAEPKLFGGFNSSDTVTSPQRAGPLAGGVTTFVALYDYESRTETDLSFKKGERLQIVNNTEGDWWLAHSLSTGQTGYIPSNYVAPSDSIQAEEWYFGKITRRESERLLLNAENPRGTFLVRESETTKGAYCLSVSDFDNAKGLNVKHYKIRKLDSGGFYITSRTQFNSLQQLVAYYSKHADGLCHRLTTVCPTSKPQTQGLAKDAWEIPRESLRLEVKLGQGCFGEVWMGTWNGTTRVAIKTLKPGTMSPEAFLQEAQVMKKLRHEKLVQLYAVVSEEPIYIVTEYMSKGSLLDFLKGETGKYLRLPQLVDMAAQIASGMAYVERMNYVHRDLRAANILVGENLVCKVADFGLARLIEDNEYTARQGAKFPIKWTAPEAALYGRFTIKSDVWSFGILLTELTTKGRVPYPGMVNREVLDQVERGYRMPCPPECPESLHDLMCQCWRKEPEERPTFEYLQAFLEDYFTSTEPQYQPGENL
Chain of GSK3α (P49840 whole entry): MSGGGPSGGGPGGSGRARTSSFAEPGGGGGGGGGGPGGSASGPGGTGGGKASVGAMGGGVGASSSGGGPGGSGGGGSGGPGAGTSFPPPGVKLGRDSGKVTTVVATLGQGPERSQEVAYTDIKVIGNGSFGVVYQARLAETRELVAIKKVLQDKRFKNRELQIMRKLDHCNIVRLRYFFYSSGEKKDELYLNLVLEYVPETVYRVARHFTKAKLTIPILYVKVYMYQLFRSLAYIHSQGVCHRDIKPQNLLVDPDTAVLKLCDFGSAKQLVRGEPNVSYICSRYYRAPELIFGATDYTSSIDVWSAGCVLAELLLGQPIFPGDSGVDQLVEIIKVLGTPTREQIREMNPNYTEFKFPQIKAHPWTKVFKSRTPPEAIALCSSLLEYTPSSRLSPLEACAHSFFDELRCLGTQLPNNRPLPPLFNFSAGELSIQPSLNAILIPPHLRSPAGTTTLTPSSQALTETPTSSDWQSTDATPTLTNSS

Row | SMILES | IC50 (Syk) | IC50 (p38 MAPKα) | IC50 (GSK3α) | IC50 (cSrc) | IC50 [2] | EC50 [3] | IC50 [1] | MTT Assay Cell viability at time point in d-U937 cells 4 h (d-U937 cells) | MTT Assay Cell viability at time point in d-U937 cells 24 h (d-U937 cells)
1 | COc1ccc(-n2nc(C(C)(C)C)cc2NC(=O)Nc2ccc(Oc3ccnc(Nc4ccc5[nH]ccc5c4)n3)c3ccccc23)cn1 [Example 82, 1-(4-((2-((1H-indol-5-yl)amino)pyrimidin-4-yl)oxy)naphthalen-1-yl)-3-(3-(tert-butyl)-1-(6-methoxypyridin-3-yl)-1H-pyrazol-5-yl)urea] | 26 nM | 63 nM | > 1560 nM | 10 nM | 2.4 nM | 1.8 nM | 2.7 nM | −ve (−ve and +ve indicate that the value is below and above respectively, the no significant effect threshold, defined as 30% inhibition at 1 μg/mL at the time point indicated.) | −ve (−ve and +ve indicate that the value is below and above respectively, the no significant effect threshold, defined as 30% inhibition at 1 μg/mL at the time point indicated.)
2 | COc1ccc(-n2nc(C(C)(C)C)cc2NC(=O)Nc2ccc(Oc3ccnc(Nc4ccc5[nH]nc(C(=O)N6CCOCC6)c5c4)n3)c3ccccc23)cn1 [Example 83, 1-(3-(tert-butyl)-1-(6-methoxypyridin-3-yl)-1H-pyrazol-5-yl)-3-(4-((2-((3-(morpholine-4-carbonyl)-1H-indazol-5-yl)amino)pyrimidin-4-yl)oxy)naphthalen-1-yl)urea] | 63 nM | 10 nM | 3780 nM | 107 nM | 8.7 nM | 0.7 nM | 2.9 nM | −ve (−ve and +ve indicate that the value is below and above respectively, the no significant effect threshold, defined as 30% inhibition at 1 μg/mL at the time point indicated.) | −ve (−ve and +ve indicate that the value is below and above respectively, the no significant effect threshold, defined as 30% inhibition at 1 μg/mL at the time point indicated.)
3 | CC(C)c1cc(NC(=O)Nc2ccc(Oc3ccnc(Nc4ccc5[nH]ncc5c4)n3)c3ccccc23)n(-c2ccc(=O)n(CCO)c2)n1 [Example 85, 1-(4-((2-((1H-indazol-5-yl)amino)pyrimidin-4-yl)oxy)naphthalen-1-yl)-3-(1-(1-(2-hydroxyethyl)-6-oxo-1,6-dihydropyridin-3-yl)-3-isopropyl-1H-pyrazol-5-yl)urea] | 15 nM | 8 nM | 2530 nM | < 2 nM | 54.4 nM | 19.7 nM | 70.2 nM | −ve (−ve and +ve indicate that the value is below and above respectively, the no significant effect threshold, defined as 30% inhibition at 1 μg/mL at the time point indicated.) | −ve (−ve and +ve indicate that the value is below and above respectively, the no significant effect threshold, defined as 30% inhibition at 1 μg/mL at the time point indicated.)
4 | CC(C)(C)c1cc(NC(=O)Nc2ccc(Oc3ccnc(Nc4ccc5c(cnn5CCN5CCOCC5)c4)n3)c3ccccc23)n(-c2ccc(OCCN3CCOCC3)nc2)n1 [Example 92, 1-(3-(tert-butyl)-1-(6-(2-morpholinoethoxy)pyridin-3-yl)-1H-pyrazol-5-yl)-3-(4-((2-((1-(2-morpholinoethyl)-1H-indazol-5-yl)amino)pyrimidin-4-yl)oxy)naphthalen-1-yl)urea] | < 1 nM | 5 nM | 569 nM | < 1 nM | 11.5 nM | 1.5 nM | 5.3 nM | −ve (−ve and +ve indicate that the value is below and above respectively, the no significant effect threshold, defined as 30% inhibition at 1 μg/mL at the time point indicated.) | −ve (−ve and +ve indicate that the value is below and above respectively, the no significant effect threshold, defined as 30% inhibition at 1 μg/mL at the time point indicated.)

Further molecules by falling IC50 (Syk), results first:

Row | IC50 (Syk) | IC50 (p38 MAPKα) | IC50 (GSK3α) | IC50 (cSrc) | IC50 [2] | EC50 [3] | SMILES | IC50 [1] | MTT Assay Cell viability at time point in d-U937 cells 4 h (d-U937 cells) | MTT Assay Cell viability at time point in d-U937 cells 24 h (d-U937 cells)
5 | 16 nM | 7 nM | 827 nM | < 1 nM | 4.1 nM | 2.2 nM | CC(C)(C)c1cc(NC(=O)Nc2ccc(Oc3ccnc(Nc4ccc5[nH]ncc5c4)n3)c3ccccc23)n(-c2ccc(=O)n(CCO)c2)n1 [Example 86, 1-(4-((2-((1H-indazol-5-yl)amino)pyrimidin-4-yl)oxy)naphthalen-1-yl)-3-(3-(tert-butyl)-1-(1-(2-hydroxyethyl)-6-oxo-1,6-dihydropyridin-3-yl)-1H-pyrazol-5-yl)urea] | 8.3 nM | −ve (−ve and +ve indicate that the value is below and above respectively, the no significant effect threshold, defined as 30% inhibition at 1 μg/mL at the time point indicated.) | −ve (−ve and +ve indicate that the value is below and above respectively, the no significant effect threshold, defined as 30% inhibition at 1 μg/mL at the time point indicated.)
6 | 12 nM | < 1.5 nM | 278 nM | 3 nM | 217 nM | 147 nM | CC(C)c1cc(NC(=O)Nc2ccc(Oc3cc(Nc4ccc5[nH]ncc5c4)ncn3)c3ccccc23)n(-c2ccc(=O)n(CCO)c2)n1 [Example 84, 1-(4-((6-((1H-indazol-5-yl)amino)pyrimidin-4-yl)oxy)naphthalen-1-yl)-3-(1-(1-(2-hydroxyethyl)-6-oxo-1,6-dihydropyridin-3-yl)-3-isopropyl-1H-pyrazol-5-yl)urea] | > 152 nM | −ve (−ve and +ve indicate that the value is below and above respectively, the no significant effect threshold, defined as 30% inhibition at 1 μg/mL at the time point indicated.) | −ve (−ve and +ve indicate that the value is below and above respectively, the no significant effect threshold, defined as 30% inhibition at 1 μg/mL at the time point indicated.)
7 | 4 nM | 45 nM | 1100 nM | 2 nM | 2.3 nM | 1.7 nM | Cc1cc(Nc2nccc(Oc3ccc(NC(=O)Nc4cc(C(C)(C)C)nn4-c4ccc(=O)n(CCO)c4)c4ccccc34)n2)cc2cn[nH]c12 [Example 87, 1-(3-(tert-butyl)-1-(1-(2-hydroxyethyl)-6-oxo-1,6-dihydropyridin-3-yl)-1H-pyrazol-5-yl)-3-(4-((2-((7-methyl-1H-indazol-5-yl)amino)pyrimidin-4-yl)oxy)naphthalen-1-yl)urea] | 1 nM | −ve (−ve and +ve indicate that the value is below and above respectively, the no significant effect threshold, defined as 30% inhibition at 1 μg/mL at the time point indicated.) | −ve (−ve and +ve indicate that the value is below and above respectively, the no significant effect threshold, defined as 30% inhibition at 1 μg/mL at the time point indicated.)
